{"source": "patent US6955766B2", "about": "“Method for reducing harmful organisms in currents of water” (priority 1999, dated 2005)", "origin": "cited, not measured here", "tested_on": "zebra mussels", "details": "batchwise treatment of water", "data": [{"smiles": "CC(=O)OO", "note": "[peroxyacetic acid]", "values": [{"measurement": "concentration necessary to achieve an acceptable mortality rate of the mussels in a sufficiently short time", "value": "≥ 10", "unit": "mg/L"}]}]}
